The values that follow come from patent US20160030438A1, “ANTI-TUMORAL COMPOSITION COMPRISING A PI3KBETA INHIBITOR AND A RAF INHIBITOR, TO OVERCOME CANCER CELLS RESISTANCE” (SANOFI, priority 2013, published 2016).

Values joined by “and” are separate entries in the source; they are usually repeats but may differ in a detail not shown here. Identical values can stand only once. A value given as a limit tells only on which side of the number the result lay.

One series concerns BRAF mutated melanoma. Particulars: phase I trial; cited from earlier work.
Series [1] concerns human melanoma cell line WM-266-4. Nature of the series: In vitro anti-proliferative activity (CelltiterGlo, ray design) in WM-266-4, example 1. Type of series: cell-based. As for the experimental part: Prior to in vitro combination studies, the activity of individual agents was investigated using WM-266-4 cell line. The purpose of testing individual agents was to determine the independence of their action and to determine the dilution design of the Fixed Ratio Drug Combination assay.
(§1) The human melanoma WM-266-4 cell line was purchased at ATCC (Ref number CRL-1676 Batch 3272826). The WM-266-4 cells were cultured in RPMI1640 medium supplemented with 10% FBS and 2 mM L-Glutamine.
They were diluted serially, in DMSO following a 3 or 3.3-fold dilution step in order to obtain 10 mM to 0.03 μM solutions: then each solution was diluted 50-fold in culture medium containing 10% serum before being added onto cells with a 20-fold dilution factor. The final concentrations tested were defined by a Ray design which allows characterizing the interaction of the two compounds for several fixed proportions in the mixture. The ray design used for this experiment includes one ray for each single agent and 4 combination rays. All rays have 10 concentrations (see Table 1). The DMSO concentration was 0.1% in controls and in all treated wells.
WM-266-4 cells were plated at 2500 cells/well in 96-well plates in appropriate culture medium and incubated for 6 hours at 37° C., 5% CO2. […] Cell growth was evaluated by measuring intracellular ATP using CelltiterGlo® reagent (Promega) according to the manufacturer's protocol. Briefly, CellTiterGlo® was added to each plate, incubated for 1 hour then luminescent signal was read on the MicroBeta Luminescent plate reader. Three experiments have been performed on the cell line. For each experiment, two 96-well plates are used allowing working with duplicates.
Inhibition of cell growth was estimated after treatment with one compound or the combination of compounds for four days and comparing the signal to cells treated with vehicle (DMSO).
Growth inhibition percentage (GI %) was calculated according to the following equation:
GI %=100*(1−((X−BG)/(TC−BG)) […]
On the technique in general: ATP-based viability assays read luminescence as a measure of living cells.

For series [2] the test system is unchanged. Kind of series: In vitro pro-apoptotic activity (PARP cleavage western blot) in WM-266-4, example 2. Type of series: cell-based. Conditions: for PARP cleavage signal (AU-BG): single agent 10 000 nM, 24 hours, WM-266-4, example 2. The method, then:
The characterization of the interaction between compound (I) and compound (II) was studied using western blotting method measuring the expression of cleaved PARP which allows to investigate apoptosis by detecting the cleavage of the PARP protein.
as §1
They were diluted following a 10 fold step dilution in DMSO in order to obtain a 1 mM solution. Then each solution at 10 mM and 1 mM was diluted 50-fold in culture medium containing 10% serum before being added onto cells with a 20-fold dilution factor to reach final concentrations of 10,000 nM and 1,000 nM. The final DMSO concentration was 0.1% in controls and in all treated wells.
WM-266-4 cells were seeded into 6-well microplates at 1 000 000 cells per well, in complete culture medium and incubated at 37° C., 5% CO2, overnight.
At the end of cell treatment period, adherent cells as well as cells in the cell culture supernatant were lysed for the preparation of the proteins. Cells were lysed in a lysis buffer containing Hepes 50 mM, NaCl 150 mM, Glycerol 10%, Triton 1%, pH=7.5, adding extemporaneously a cocktail of protease and phosphatase inhibitors diluted 100 fold. Protein concentrations in each sample were determined using microBCA technique according to manufacturer's instructions. Western blotting was performed loading 20 μg of proteins in each gel well, and according to the operating procedure. […] After western blotting revelation according to the operating procedure instructions, luminescence was read using FujiFilm (Ray Test) apparatus.
This instrument measures the total signal of luminescence obtained on Fujifilm machine (AU) for each selected band. Then, it subtracts the background value (BG) proportional to the size of the selected band or Area. The background is calculated from a band taken on the specific background of the western blot, to obtain the specific signal or (AU−BG) for each band. The calculation of the fold induction is performed for each treatment with compound or combination of compounds using the following formula:
Fold Induction=((AU−BG)t/(AU−BG)st)*100

For a further series, the target named is mTOR (Homo sapiens, UniProt P42345). Kind of series: mTOR inhibition. Conditions: up to 10 μM. In kind it is biochemical.
Series [3] has as its target T1, PI3Kgamma (Mus musculus, UniProt Q9JHG7).
T1 construct: RAW 264.7 mouse macrophages (after stimulation of AKT phosphorylation by C5a) for PI3Kgamma; endogenous in cells; host or cells: RAW 264.7 mouse macrophages
Nature of the series: Inhibition of AKT phosphorylation (pAkt-S473) in RAW 264.7 mouse macrophages after C5a stimulation. Particulars: pAkt-S473, RAW 264.7, C5a; read-out: IC50 on PI3Kgamma in cells. Type of series: cell-based.

The target of a further series is VPS34 lipid kinase (Homo sapiens, UniProt Q8NEB9). Nature of the series: Profiling against panel of more than 400 lipid and protein kinases (VPS34). Particulars: biochemical.
For another series, the target named is PI3Kβ (Homo sapiens, UniProt P42338). Nature of the series: Inhibition of AKT phosphorylation (pAkt-S473) in MEF-3T3-myr p110β mouse fibroblasts. Type of series: cell-based. Particulars: pAkt-S473, MEF-3T3-myr p110β; read-out: IC50 on PI3Kβ in the PI3Kβ-dependent cell line.
Series [4] addresses T2, PI3Kdelta (Homo sapiens, UniProt O00329). Kind of series: Inhibition of AKT phosphorylation (pAkt-S473) in MEF-3T3-myr p110δ mouse fibroblasts. In kind it is cell-based. Conditions: pAkt-S473, MEF-3T3-myr p110δ; read-out: IC50 on PI3Kdelta in cells.
A further series concerns the target VPS34 (Homo sapiens, UniProt Q8NEB9). Nature of the series: Functional VPS34 cellular assay. Type of series: cell-based.
The target in a further series is PI3Kβ isoform (Homo sapiens, UniProt P42338). Nature of the series: PI3Kβ biochemical assay. Particulars: biochemical assays.
Series [5] addresses PI3Kgamma (Homo sapiens, UniProt P48736). Kind of series: PI3Kgamma biochemical assay. Conditions: biochemical assays.
The target in series [6] is T2, PI3Kdelta. Kind of series: PI3Kdelta biochemical assay. Particulars: biochemical assays.

Sequence of VPS34 lipid kinase (Q8NEB9 whole entry): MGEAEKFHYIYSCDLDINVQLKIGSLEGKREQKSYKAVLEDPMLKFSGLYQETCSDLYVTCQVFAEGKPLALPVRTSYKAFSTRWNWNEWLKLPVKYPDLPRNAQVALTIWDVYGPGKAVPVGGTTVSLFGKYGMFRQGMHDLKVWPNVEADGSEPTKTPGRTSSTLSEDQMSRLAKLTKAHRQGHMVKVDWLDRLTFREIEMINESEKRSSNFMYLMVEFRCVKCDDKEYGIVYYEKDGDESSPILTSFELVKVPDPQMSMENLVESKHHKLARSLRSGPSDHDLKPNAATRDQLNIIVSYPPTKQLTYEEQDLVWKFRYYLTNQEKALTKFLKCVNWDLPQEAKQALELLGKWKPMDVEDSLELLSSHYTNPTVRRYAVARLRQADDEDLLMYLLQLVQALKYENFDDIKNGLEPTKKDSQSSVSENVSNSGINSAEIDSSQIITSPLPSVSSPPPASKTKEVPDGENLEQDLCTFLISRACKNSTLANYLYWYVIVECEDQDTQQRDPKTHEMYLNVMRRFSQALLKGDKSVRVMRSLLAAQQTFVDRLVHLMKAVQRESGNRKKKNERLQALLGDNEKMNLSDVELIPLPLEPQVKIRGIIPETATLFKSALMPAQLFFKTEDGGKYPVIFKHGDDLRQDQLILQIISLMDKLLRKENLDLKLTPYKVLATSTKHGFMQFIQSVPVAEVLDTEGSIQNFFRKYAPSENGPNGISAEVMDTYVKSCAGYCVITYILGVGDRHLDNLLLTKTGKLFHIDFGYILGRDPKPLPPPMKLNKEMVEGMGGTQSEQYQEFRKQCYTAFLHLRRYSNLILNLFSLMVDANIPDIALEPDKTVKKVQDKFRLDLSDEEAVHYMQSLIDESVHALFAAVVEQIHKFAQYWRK
Sequence of VPS34 (Q8NEB9 whole entry, species assumed, canonical isoform): as the sequence (Q8NEB9 whole entry) above
Sequence of PI3Kgamma (Homo sapiens, UniProt P48736) (P48736 whole entry, species assumed): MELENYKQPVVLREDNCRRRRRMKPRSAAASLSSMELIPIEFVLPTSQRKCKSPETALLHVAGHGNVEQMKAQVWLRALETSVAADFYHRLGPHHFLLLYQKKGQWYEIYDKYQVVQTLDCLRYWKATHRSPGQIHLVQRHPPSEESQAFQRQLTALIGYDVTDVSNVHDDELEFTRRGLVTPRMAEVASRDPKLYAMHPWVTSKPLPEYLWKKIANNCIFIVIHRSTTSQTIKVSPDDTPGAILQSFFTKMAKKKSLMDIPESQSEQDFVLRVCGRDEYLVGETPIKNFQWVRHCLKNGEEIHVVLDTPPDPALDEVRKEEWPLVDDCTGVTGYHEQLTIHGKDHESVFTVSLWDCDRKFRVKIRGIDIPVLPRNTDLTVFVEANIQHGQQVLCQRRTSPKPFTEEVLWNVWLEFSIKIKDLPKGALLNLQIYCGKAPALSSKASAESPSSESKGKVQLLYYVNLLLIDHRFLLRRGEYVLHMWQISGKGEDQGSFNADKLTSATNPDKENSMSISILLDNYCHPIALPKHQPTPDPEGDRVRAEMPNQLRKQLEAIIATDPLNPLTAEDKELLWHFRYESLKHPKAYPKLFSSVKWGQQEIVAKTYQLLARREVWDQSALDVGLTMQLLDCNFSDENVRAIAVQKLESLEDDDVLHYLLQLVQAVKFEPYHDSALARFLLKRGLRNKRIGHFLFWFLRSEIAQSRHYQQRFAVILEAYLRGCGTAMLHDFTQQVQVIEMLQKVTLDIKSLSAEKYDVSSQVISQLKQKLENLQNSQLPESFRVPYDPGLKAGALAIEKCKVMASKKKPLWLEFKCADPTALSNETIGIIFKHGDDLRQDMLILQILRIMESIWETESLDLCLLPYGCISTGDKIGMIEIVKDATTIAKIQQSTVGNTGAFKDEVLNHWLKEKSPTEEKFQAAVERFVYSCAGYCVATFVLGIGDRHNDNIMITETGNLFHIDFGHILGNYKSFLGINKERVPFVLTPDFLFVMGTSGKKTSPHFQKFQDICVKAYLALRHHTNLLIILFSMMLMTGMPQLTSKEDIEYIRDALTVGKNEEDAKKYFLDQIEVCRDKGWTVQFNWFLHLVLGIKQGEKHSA
Sequence of PI3Kβ (P42338 whole entry, species assumed): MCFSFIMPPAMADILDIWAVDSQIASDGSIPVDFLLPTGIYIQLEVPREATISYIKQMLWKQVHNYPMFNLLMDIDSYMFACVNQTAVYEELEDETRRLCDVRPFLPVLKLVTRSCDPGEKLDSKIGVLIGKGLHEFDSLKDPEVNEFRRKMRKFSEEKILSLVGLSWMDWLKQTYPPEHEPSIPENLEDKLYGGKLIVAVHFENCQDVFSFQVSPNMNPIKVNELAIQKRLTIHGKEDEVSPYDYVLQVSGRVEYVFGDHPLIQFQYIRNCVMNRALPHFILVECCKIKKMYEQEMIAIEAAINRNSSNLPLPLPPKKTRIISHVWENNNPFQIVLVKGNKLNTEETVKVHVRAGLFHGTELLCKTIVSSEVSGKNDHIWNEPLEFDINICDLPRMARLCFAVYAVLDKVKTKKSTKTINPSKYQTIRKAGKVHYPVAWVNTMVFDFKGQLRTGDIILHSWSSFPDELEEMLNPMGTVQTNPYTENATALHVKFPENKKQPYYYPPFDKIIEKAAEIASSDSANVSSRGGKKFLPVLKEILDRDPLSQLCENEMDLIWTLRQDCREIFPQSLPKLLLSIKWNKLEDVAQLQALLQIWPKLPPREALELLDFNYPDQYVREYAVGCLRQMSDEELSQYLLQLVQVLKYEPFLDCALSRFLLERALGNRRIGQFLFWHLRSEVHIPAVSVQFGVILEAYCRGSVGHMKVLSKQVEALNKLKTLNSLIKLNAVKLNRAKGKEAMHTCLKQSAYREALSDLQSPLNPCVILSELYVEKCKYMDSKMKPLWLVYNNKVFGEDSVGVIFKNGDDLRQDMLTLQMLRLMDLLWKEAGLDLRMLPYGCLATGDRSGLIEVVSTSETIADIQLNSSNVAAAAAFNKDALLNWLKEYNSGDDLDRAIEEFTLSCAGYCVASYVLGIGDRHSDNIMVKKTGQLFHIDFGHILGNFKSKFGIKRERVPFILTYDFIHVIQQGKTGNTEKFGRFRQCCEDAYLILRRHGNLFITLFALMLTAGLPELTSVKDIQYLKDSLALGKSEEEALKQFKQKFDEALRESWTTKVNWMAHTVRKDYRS
Sequence of PI3Kβ (P26450 whole entry partner, species assumed): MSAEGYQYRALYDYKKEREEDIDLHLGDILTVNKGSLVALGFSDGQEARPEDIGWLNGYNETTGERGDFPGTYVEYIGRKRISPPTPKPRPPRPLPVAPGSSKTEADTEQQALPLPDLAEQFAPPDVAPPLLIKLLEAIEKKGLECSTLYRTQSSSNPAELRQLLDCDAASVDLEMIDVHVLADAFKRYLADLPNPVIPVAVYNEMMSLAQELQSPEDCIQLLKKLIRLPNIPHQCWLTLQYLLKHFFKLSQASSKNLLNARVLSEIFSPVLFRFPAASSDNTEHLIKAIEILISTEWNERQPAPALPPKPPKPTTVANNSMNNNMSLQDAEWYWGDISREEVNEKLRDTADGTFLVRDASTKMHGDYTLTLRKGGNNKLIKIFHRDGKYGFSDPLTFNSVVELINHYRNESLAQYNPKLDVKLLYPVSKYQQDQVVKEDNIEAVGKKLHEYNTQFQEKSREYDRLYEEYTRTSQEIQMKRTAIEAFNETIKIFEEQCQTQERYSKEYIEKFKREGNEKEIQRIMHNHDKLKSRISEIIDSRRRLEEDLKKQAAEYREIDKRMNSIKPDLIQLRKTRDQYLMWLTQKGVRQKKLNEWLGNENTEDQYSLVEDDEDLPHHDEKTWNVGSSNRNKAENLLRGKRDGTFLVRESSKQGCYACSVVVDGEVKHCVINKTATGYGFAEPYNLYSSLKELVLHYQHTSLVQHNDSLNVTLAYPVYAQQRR
Sequence of PI3Kβ isoform (P42338 whole entry, canonical isoform): as the sequence (P42338 whole entry, species assumed) above
Sequence of PI3Kβ isoform (P27986 whole entry partner, canonical isoform): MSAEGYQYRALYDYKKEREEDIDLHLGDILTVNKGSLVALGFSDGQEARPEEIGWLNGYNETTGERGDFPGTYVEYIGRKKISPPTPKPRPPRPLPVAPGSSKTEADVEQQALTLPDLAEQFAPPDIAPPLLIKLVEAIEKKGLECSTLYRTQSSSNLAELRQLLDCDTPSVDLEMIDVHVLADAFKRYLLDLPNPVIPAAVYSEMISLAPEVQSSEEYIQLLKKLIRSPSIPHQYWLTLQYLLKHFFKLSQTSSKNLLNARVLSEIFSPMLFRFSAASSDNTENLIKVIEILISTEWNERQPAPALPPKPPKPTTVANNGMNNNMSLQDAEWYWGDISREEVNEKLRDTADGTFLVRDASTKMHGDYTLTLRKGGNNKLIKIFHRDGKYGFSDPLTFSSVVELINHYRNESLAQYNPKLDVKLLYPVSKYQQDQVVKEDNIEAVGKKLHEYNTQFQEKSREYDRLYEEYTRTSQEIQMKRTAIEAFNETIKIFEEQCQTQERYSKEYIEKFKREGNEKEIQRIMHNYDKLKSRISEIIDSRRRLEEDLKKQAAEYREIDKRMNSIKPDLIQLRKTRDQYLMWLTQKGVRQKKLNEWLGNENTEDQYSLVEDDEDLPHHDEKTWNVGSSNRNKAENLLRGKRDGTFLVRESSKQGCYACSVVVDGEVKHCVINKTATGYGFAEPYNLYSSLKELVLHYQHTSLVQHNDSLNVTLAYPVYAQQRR

`CCCS(=O)(=O)Nc1ccc(F)c(C(=O)c2c[nH]c3ncc(-c4ccc(Cl)cc4)cc23)c1F` [Compound (II), 1-Propanesulfonamide,N-[3-[[5-(4-chlorophenyl)-1H-pyrrolo[2,3-b]pyridin-3-yl]carbonyl]-2,4-difluorophenyl]]: in the series with BRAF mutated melanoma, the “patients with at least 30% tumor shrinkage by RECIST” value is on record as 81%. For the same compound, in series [1] (Homo sapiens, WM 266-4, approximately, read-out: IC50 with WM-266-4 sensitive cancer cells), the IC50 was about 84 nM. In series [1] (single agent, WM-266-4, 96 hours, example 1), the “Absolute IC40s” value was 35 nM and 34.9 nM. The “IC40, antiproliferative effect, WM-266-4” value in series [1] (single agent, approximately) was about 60 nM. Further, in series [2] (human, WM-266-4 melanoma cells (BRAF mutant, PTEN-deficient), 24 h, 10000 nM), the “Fold induction of PARP cleavage” value is listed as 1.38 fold. In addition, in series [2], the “PARP cleavage signal (AU-BG)” value was 982219 AU-BG.

Turning to `C[C@H]1Cc2ccccc2N1C(=O)Cc1nc(N2CCOCC2)cc(=O)[nH]1` [Compound (I), 2-{2-[(2S)-2-methyl-2,3-dihydro-1H-indol-1-yl]-2-oxoethyl}-6-(morpholin-4-yl)pyrimidin-4(3H)-one], on mTOR, the mTOR inhibition result is “not inhibit mTOR”. The IC50 was over 3000 nM at PI3Kgamma [3]; 180 nM at VPS34 lipid kinase; 32 nM on PI3Kβ; 823 nM at PI3Kdelta [4]; over 10000 nM on VPS34; 65 nM against PI3Kβ isoform. Further, the IC50 against PI3Kgamma [5] is over 10000 nM; against PI3Kdelta [6], 465 nM. Besides, the “PARP cleavage signal (AU-BG)” value in series [2] is given as 509366 AU-BG.
